Blank lines part the entries; values can stand above or below the compound they belong to. The source made the active and inactive calls. The calls are words filed in the database; no cut-off is given here.
What was measured:
[1] = molecular target: T1, Adenosine receptor A1 (Homo sapiens, UniProt P30542); assay: Displacement of [3H]2-chloro-N6-cyclopentyladenosine from human A1AR
T1 sequence (P30542 whole entry): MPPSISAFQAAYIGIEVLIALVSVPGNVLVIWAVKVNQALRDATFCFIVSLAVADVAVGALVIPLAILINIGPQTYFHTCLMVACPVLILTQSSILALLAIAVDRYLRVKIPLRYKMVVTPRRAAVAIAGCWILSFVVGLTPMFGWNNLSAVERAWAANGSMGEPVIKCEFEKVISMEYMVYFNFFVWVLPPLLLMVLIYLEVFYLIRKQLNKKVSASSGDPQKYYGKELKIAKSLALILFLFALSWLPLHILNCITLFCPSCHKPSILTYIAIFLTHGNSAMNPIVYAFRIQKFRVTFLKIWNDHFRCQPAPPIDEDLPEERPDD

[2] = molecular target: T2, Adenosine receptor A2b (Homo sapiens) (UniProt P29275); assay: Displacement of [3H]2-chloro-N6-cyclopentyladenosine from human A2BR at 10 uM
T2 sequence (whole entry): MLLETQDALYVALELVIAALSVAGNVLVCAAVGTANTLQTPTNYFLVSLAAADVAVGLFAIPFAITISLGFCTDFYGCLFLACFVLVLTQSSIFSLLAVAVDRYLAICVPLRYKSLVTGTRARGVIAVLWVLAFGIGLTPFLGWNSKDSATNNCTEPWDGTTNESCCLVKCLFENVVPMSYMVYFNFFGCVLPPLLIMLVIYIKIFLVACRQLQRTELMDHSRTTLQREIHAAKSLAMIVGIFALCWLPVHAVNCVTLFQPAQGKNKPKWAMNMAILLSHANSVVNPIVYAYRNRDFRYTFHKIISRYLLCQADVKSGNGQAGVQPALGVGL

[3] = species: Homo sapiens; assay: Selectivity ratio of Ki for human A3AR to Ki for human A1AR
[4] = molecular target: T1, Adenosine receptor A1; assay: Agonist activity at human A1AR expressed in HEK293T/17 cells assessed as inhibition of isoproterenol-induced cAMP accumulation incubated for 10 mins by luciferase reporter assay; format: functional, cell-based, HEK-293T
[5] = molecular target: T3, Adenosine receptor A3 (Homo sapiens, UniProt P0DMS8); assay: Displacement of [3H]2-chloro-N6-cyclopentyladenosine from human A3AR
T3 sequence (P0DMS8 whole entry): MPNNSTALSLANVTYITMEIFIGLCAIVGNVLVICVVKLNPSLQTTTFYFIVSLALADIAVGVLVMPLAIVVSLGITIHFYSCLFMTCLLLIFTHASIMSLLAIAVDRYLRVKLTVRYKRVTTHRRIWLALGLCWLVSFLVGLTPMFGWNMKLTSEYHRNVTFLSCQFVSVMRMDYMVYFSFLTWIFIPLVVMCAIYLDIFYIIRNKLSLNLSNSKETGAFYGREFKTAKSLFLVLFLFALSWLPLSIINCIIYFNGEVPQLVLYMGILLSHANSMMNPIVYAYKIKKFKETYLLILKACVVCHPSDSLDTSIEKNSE

[6] = molecular target: T1, Adenosine receptor A1; assay: Agonist activity at human A1AR assessed as induction of Ca2+ ion mobilization by orthogonal functional assay
[7] = molecular target: Adenosine receptor A2a (Homo sapiens, UniProt P29274); assay: Displacement of [3H]2-chloro-N6-cyclopentyladenosine from human A2AR
Sequence of Adenosine receptor A2a (P29274 whole entry): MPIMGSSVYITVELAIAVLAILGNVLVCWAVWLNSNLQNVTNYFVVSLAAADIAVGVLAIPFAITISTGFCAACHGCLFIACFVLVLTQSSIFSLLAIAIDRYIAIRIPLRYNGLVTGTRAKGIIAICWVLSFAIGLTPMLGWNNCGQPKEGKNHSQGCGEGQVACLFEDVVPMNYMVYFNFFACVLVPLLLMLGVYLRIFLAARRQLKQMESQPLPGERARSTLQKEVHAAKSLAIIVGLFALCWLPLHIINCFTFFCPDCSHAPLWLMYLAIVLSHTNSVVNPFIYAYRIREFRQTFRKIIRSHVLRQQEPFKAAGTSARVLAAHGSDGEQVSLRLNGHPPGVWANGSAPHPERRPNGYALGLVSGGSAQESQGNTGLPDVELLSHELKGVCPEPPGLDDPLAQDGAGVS

[8] = molecular target: T1, Adenosine receptor A1; assay: Agonist activity at human A1AR expressed in HEK293T/17 cells assessed as inhibition of forskolin-induced cAMP accumulation incubated for 10 mins by luciferase reporter assay; format: functional, cell-based, HEK-293T
[9] = tested on: Mus musculus; assay: Cardiovascular toxicity in A1AR knock out C57BL/6 mouse assessed as change in body temperature at 5000 nmol/kg, po; format: organism-based; conditions: in vivo
[10] = tested on: Mus musculus; assay: Antinociceptive effect in orally dosed C57BL/6 mouse assessed as inhibition of noxious thermal sensitivity by measuring paw withdrawal latency; format: functional, organism-based
[11] = tested on: Mus musculus; assay: Cardiovascular toxicity in C57BL/6 mouse assessed as change in body temperature at 5000 nmol/kg, po; format: organism-based; conditions: in vivo
[12] = tested on: Mus musculus; assay: Cardiovascular toxicity in C57BL/6 mouse assessed as change in heart rate at 5000 nmol/kg, po; format: organism-based; conditions: in vivo
[13] = tested on: Mus musculus; assay: Cardiovascular toxicity in A1AR knock out C57BL/6 mouse assessed as change in heart rate at 5000 nmol/kg, po; format: organism-based; conditions: in vivo
[14] = molecular target: T2, Adenosine receptor A2b (Homo sapiens); assay: Displacement of [3H]2-chloro-N6-cyclopentyladenosine from human A2BR at 50 uM
[15] = tested on: Mus musculus; assay: Antinociceptive effect in intravenously dosed C57BL/6 mouse assessed as inhibition of noxious thermal sensitivity by measuring paw withdrawal latency; format: functional, organism-based
[16] = tested on: Mus musculus; assay: Antinociceptive effect in A1AR knock out C57BL/6 mouse assessed as inhibition of noxious thermal sensitivity by measuring paw withdrawal latency at 5 nmol/kg, it; format: functional, organism-based
[17] = tested on: Mus musculus; assay: Antinociceptive effect in intrathecally dosed C57BL/6 mouse assessed as inhibition of noxious thermal sensitivity by measuring paw withdrawal latency; format: functional, organism-based
[18] = species: Homo sapiens; assay: Selectivity ratio of Ki for human A2AR to Ki for human A1AR

- Ki [1]: 25 nM
- inhibition [2]: 0%
- Ratio Ki [3]: 52
- EC50 [4]: 72 nM
- Ki [5]: 1300 nM
- EC50 [6]: 21 nM
- Ki [7]: 1.6 µM
Structure (SMILES): O=P(O)(O)OC[C@H]1O[C@@H](n2cnc3c(NC4CCCC4)nc(Cl)nc32)[C@H](O)[C@@H]1O

- EC50 [4]: 500 nM
Structure (SMILES): Nc1ncnc2c1ncn2[C@@H]1O[C@H](COP(=O)(O)O)[C@@H](O)[C@H]1O [ADENOSINE PHOSPHATE]

Structure (SMILES): COP(=O)(OC)OCC(Cc1ccccc1)Nc1nc(Cl)nc2c1ncn2[C@@H]1O[C@H](CO)[C@@H](O)[C@H]1O (mixture of isomers)
- EC50 [4]: 5400 nM

- EC50 [4]: 490 nM
Structure (SMILES): Nc1ncnc2c1ncn2[C@@H]1O[C@H](CO)[C@@H](O)[C@H]1OP(=O)(O)O

- EC50 [4]: 530 nM
Structure (SMILES): CCOC(=O)CNP(=O)(NCC(=O)OCC)OC[C@H]1O[C@@H](n2cnc3c(NC4CCCC4)nc(Cl)nc32)[C@H](O)[C@@H]1O

Structure (SMILES): CCOP(=O)(OCC)OC[C@H]1O[C@@H](n2cnc3c(NC4CCCC4)nc(Cl)nc32)[C@H](O)[C@@H]1O
- EC50 [4]: > 10000 nM

- EC50 [8]: 120 nM
Structure (SMILES): O=P(O)(O)O[C@@H]1CCC[C@H]1Nc1nc(Cl)nc2c1ncn2[C@@H]1O[C@H](CO)[C@@H](O)[C@H]1O

- EC50 [8]: 5.9 nM
Structure (SMILES): OC[C@H]1O[C@@H](n2cnc3c(N[C@H]4CCC[C@@H]4O)ncnc32)[C@H](O)[C@@H]1O [GR-79236]

Structure (SMILES): COP(=O)(OC)O[C@@H]1CCC[C@H]1Nc1nc(Cl)nc2c1ncn2[C@@H]1O[C@H](CO)[C@@H](O)[C@H]1O
- EC50 [8]: > 10000 nM

- EC50 [4]: 550 nM
Structure (SMILES): OCC(Cc1ccccc1)Nc1nc(Cl)nc2c1ncn2[C@@H]1O[C@H](CO)[C@@H](O)[C@H]1O (mixture of isomers)

- EC50 [4]: 6100 nM
Structure (SMILES): O=P(OCCc1ccccc1)(OCCc1ccccc1)OC[C@H]1O[C@@H](n2cnc3c(NC4CCCC4)nc(Cl)nc32)[C@H](O)[C@@H]1O

- EC50 [4]: 440 nM
Structure (SMILES): Nc1ncnc2c1ncn2[C@@H]1O[C@H](CO)[C@@H](OP(=O)(O)O)[C@H]1O

Structure (SMILES): OC[C@H]1O[C@@H](n2cnc3c(NC4CCCC4)ncnc32)[C@H](O)[C@@H]1O [N6-CYCLOPENTYLADENOSINE]
- Activity [9]: Non-toxic
- Activity [10]: Dose-dependent effect
- Activity [11]: Toxic
- Activity [12]: Toxic
- Activity [13]: Non-toxic

- EC50 [4]: 1500 nM
Structure (SMILES): O=P(O)(O)OCC(Cc1ccccc1)Nc1nc(Cl)nc2c1ncn2[C@@H]1O[C@H](CO)[C@@H](O)[C@H]1O (mixture of isomers)

- EC50 [4]: 100 nM
Structure (SMILES): O=P(O)(O)OC[C@H]1O[C@@H](n2cnc3c(NC4CCCC4)ncnc32)[C@H](O)[C@@H]1O

Structure (SMILES): COP(=O)(OC)OC[C@H]1O[C@@H](n2cnc3c(NC4CCCC4)nc(Cl)nc32)[C@H](O)[C@@H]1O
- inhibition [14]: 7%
- Ki [1]: 36 nM
- Ratio Ki [3]: 12
- Activity [15]: Dose-dependent effect
- Activity [16]: inactive
- Activity [17]: Dose-dependent effect
- EC50 [4]: 1400 nM
- Ki [5]: 450 nM
- EC50 [6]: 520 nM
- Ratio Ki [18]: 130
- Ki [7]: 4.7 µM
- Activity [9]: Non-toxic
- Activity [10]: Dose-dependent effect
- Activity [11]: Non-toxic
- Activity [12]: Non-toxic
- Activity [13]: Non-toxic

Structure (SMILES): COP(=O)(OC)OC[C@H]1O[C@@H](n2cnc3c(NC4CCCC4)ncnc32)[C@H](O)[C@@H]1O
- EC50 [4]: 4400 nM
